Columns and labels:
[1] = molecular target: T1, human EDG8 (Homo sapiens, UniProt Q9H228); test: FLIPR intracellular Ca2+ mobilization in CHO cells transiently transfected with EDG8; type: cell-based; set-up: The 1197 bp PCR product was cloned into the pCDNA3.1(+) mammalian expression vector; expressed in transfected cells; host or cells: CHO-K1, transient transfection; conditions: for EDG8-mediated increase in intracellular Ca2+ by lysophospholipid mediators: CHO cells transiently transfected with EDG8 and Gα16 or Gαqi5, lipids at 10, 100, 1000 nM
Procedure: FIG. 3: Effects of S1P, LPA and related lysophospholipid mediators on EDG8-mediated increase in intracellular Ca^2+. CHO-cells were cotransfected with EDG8 and the G protein α subunits Gqi5 (upper panel) and G16 (lower panel) and rises in [Ca^2+]i were recorded with the FLIPR as described in Experimental procedures. The different lipids were applied in concentrations of 10, 100 and 1000 nM, respectively. Data are means of quadruplicate determinations of a representative experiment.
CHO-K1 cells were grown in basal ISCOVE medium supplemented with 10% fetal bovine serum at 37° C. in a humidified 5% CO2 incubator. For transfections, 2×10^5 cells were seeded into 35-mm dishes. About 24 hr later cells were transiently transfected at 50–80% confluency with the indicated receptor and G-protein constructs (1 μg of plasmid DNA each) using the Lipofectamine transfection reagent and the supplied protocol (GIBCO). 18–24 hr after transfection cells were seeded into 96well plates at a density of 50,000 cells per well and cultured for 18–24 additional hr until used in the functional FLIPR assays.
Twenty-four hours after transfection, cells were splitted into 96-well, black-wall microplates (Corning) at a density of 50,000 cells per well. 18–24 hr later, cells were loaded with 95 μl of HBSS containing 20 mM Hepes, 2.5 mM probenecid, 4 μM fluorescent calcium indicator dye Fluo4 (Molecular Probes) and 1% fetal bovine serum for 1 h (37° C., 5% CO2). Cells were washed three times with HBSS containing 20 mM Hepes and 2.5 mM probenecid in a cell washer. After the final wash, the solution was aspirated to a residual volume of 100 μl per 96 well. Lipid ligands were dissolved in DMSO as 2 mM stock solutions (treated with ultrasound when necessary) and diluted at least 1:100 into HBSS containing 20 mM HEPES, 2.5 mM probenecid and 0.4 mg/ml fatty acid free bovine serum albumine. Lipids were aliquoted as 2× solutions into a 96 well plate prior to the assay. The fluorometric imaging plate reader (FLIPR, Molecular Devices) was programmed to transfer 100 μl from each well of the ligand microplate to each well of the cellplate and to record fluorescence during 3 min in 1 second intervals during the first minute and 3 second intervals during the last two minutes. Total fluorescence counts from the 18-s to 37-s time points are used to determine agonist activity. The instrument software normalizes the fluorescent reading to give equivalent initial readings at time zero.

[2] = molecular target: T2, EDG5 receptor (Homo sapiens, UniProt O95136); test: FLIPR intracellular Ca2+ mobilization in CHO cells transfected with EDG5; type: cell-based; conditions: transiently transfected CHO cells; 10, 100, 1000 nM
T2 construct: expressed in transfected cells; host or cells: CHO-K1, transient transfection
Procedure: (§1) FIGS. 2A–F: Mobilization of intracellular Ca^2+ by S1P (10, 100 and 1000 nM) mediated by the EDG1, 3, 5, 6 and 8 receptor in CHO cells, cotransfected with empty vector DNA as a control or the indicated G-protein α subunits.
(§2) A: S1P-induced Ca^2+-response in CHO cells transfected with vector DNA alone or the G protein α subunits Gq, G16 and Gqi5. B-F: S1P-induced Ca^2+-response in CHO cells transfected with the indicated EDG-receptor subtypes. Agonist-mediated changes of intracellular Ca^2+ were measured with the FLIPR using the Ca^2+-sensitive dye FLUO4 as described in Experimental procedures. Fluorescence of transfected cells loaded with FLUO4 was recorded before and after addition of S1P, applied in the indicated concentrations. Data are expressed as means of quadruplicate determinations in a single experiment.
(§3) CHO-K1 cells were grown in basal ISCOVE medium supplemented with 10% fetal bovine serum at 37° C. in a humidified 5% CO2 incubator. For transfections, 2×10^5 cells were seeded into 35-mm dishes. About 24 hr later cells were transiently transfected at 50–80% confluency with the indicated receptor and G-protein constructs (1 μg of plasmid DNA each) using the Lipofectamine transfection reagent and the supplied protocol (GIBCO). […]

[3] = molecular target: EDG6 receptor (Homo sapiens, UniProt O95977); test: FLIPR intracellular Ca2+ mobilization in CHO cells transfected with EDG6; type: cell-based; conditions: absence of any cotransfected G-protein α subunit
Procedure: as §1, §2, §3

[4] = molecular target: EDG1 receptor (Homo sapiens, UniProt P21453); test: FLIPR intracellular Ca2+ mobilization in CHO cells transfected with EDG1; type: cell-based; conditions: transiently transfected CHO cells; 10, 100, 1000 nM
Procedure: as §1, §2, §3

[5] = system: CHO cells; test: FLIPR intracellular Ca2+ mobilization in CHO cells without EDG receptor (vector or G protein alpha subunits only); type: cell-based, chinese hamster
Procedure: as §1, §2, §3

[6] = molecular target: EDG3 receptor (Homo sapiens, UniProt Q99500); test: FLIPR intracellular Ca2+ mobilization in CHO cells transfected with EDG3; type: cell-based; conditions: transiently transfected CHO cells; 10, 100, 1000 nM
Procedure: as §1, §2, §3

[7] = molecular target: T3, rat EDG8 (Rattus norvegicus, UniProt Q9JKM5); test: Effect of inhibitor alone on [Ca2+]i during preincubation, cells cotransfected with rat EDG8 and Gαqi5; type: cell-based; conditions: 3 minutes, before 1 μM S1P
T3 construct: expressed in transfected cells
Procedure: (§4) FIG. 9: Inhibition of S1P mediated intracellular calcium release by suramin and NF023 (8,8′-(carbonylbis(imino-3,1-phenylene))bis-(1,3,5-naphatlenetrisulfonic acid)) in cells transiently cotransfected with human EDG8 and Gαqi5 (A) and rat EDG8 and Gαqi5 (B). […] Cells were then stimulated with 1 μM S1P and in [Ca^2+]i measured with the FLIPR as described in the method section. Peak fluorescence counts were normalized and background responses of Gαqi5-transfected cells were subtracted. S1P-mediated calcium release in the absence of inhibitor was set 100%. Data are means±SE of 4–7 independent experiments.
(§5) Twenty-four hours after transfection, cells were splitted into 96-well, black-wall microplates (Corning) at a density of 50,000 cells per well. […] The fluorometric imaging plate reader (FLIPR, Molecular Devices) was programmed to transfer 100 μl from each well of the ligand microplate to each well of the cellplate and to record fluorescence during 3 min in 1 second intervals during the first minute and 3 second intervals during the last two minutes. Total fluorescence counts from the 18-s to 37-s time points are used to determine agonist activity. The instrument software normalizes the fluorescent reading to give equivalent initial readings at time zero.

[8] = molecular target: T1, human EDG8; test: Effect of inhibitor alone on [Ca2+]i during preincubation, cells cotransfected with human EDG8 and Gαqi5; type: cell-based; set-up: The 1197 bp PCR product was cloned into the pCDNA3.1(+) mammalian expression vector; expressed in transfected cells; conditions: 3 minutes, before 1 μM S1P
Procedure: as §4, §5

T1 sequence (Q9H228 whole entry): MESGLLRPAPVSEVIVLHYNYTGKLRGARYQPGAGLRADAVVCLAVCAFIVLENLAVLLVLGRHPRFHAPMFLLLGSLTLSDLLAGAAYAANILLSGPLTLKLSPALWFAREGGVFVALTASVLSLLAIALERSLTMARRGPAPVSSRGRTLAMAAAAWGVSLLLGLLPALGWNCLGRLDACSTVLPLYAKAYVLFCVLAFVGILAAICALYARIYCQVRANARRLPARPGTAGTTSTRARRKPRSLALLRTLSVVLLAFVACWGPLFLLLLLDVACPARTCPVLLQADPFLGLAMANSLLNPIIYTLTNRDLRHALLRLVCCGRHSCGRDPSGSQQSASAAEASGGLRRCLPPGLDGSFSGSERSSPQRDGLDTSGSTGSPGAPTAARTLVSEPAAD
T2 sequence (O95136 whole entry): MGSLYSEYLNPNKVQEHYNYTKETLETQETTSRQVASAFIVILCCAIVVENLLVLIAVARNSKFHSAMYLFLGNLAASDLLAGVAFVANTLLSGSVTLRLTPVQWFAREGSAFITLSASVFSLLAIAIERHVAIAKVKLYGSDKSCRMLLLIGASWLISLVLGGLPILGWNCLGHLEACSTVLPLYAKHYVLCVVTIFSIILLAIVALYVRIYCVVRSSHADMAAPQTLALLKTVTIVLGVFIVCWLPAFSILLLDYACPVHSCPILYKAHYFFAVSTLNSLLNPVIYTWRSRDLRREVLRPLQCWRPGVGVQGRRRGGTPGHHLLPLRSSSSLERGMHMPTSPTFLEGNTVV
Chain of EDG3 receptor (Q99500 whole entry): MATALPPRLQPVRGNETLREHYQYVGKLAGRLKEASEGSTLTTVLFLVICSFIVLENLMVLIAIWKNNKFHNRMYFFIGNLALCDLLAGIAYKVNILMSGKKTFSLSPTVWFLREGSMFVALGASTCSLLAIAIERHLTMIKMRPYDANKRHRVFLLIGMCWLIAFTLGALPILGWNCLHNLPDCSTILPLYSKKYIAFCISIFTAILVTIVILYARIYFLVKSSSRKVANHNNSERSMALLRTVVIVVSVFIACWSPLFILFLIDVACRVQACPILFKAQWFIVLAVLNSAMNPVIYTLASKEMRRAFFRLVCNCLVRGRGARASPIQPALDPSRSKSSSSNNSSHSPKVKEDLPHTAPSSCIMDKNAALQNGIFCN
T3 sequence (Q9JKM5 whole entry): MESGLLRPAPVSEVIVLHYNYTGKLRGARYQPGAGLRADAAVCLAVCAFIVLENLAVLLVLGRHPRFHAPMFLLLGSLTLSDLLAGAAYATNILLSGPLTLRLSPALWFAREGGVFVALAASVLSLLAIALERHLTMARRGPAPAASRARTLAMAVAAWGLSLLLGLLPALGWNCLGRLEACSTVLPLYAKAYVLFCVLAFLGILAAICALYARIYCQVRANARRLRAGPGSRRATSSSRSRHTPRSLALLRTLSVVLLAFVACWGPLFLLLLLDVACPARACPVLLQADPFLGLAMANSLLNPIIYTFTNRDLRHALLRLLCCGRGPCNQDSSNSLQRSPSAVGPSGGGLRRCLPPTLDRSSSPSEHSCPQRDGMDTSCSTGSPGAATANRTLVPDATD
Chain of EDG1 receptor (P21453 whole entry): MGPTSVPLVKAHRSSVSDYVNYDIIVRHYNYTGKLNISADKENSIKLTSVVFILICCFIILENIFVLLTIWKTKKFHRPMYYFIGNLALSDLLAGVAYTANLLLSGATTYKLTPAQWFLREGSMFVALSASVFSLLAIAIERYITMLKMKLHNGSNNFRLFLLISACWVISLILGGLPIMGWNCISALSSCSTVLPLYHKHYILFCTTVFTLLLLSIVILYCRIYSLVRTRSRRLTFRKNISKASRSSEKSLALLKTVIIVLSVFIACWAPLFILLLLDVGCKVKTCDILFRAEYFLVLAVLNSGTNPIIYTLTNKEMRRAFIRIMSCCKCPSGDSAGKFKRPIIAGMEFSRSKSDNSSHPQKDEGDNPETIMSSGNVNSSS
Chain of EDG6 receptor (O95977 whole entry): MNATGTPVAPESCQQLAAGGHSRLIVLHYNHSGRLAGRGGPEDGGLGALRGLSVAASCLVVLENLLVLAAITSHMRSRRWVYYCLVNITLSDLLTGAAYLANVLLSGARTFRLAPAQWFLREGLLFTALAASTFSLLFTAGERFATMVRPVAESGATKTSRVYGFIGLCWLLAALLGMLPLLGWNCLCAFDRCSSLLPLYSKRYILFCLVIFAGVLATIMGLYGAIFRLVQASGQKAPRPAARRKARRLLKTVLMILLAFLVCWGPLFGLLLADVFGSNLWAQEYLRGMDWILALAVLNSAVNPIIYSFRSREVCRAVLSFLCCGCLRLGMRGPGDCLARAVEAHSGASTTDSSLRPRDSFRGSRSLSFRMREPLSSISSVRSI

Compound: lysophosphatidylcholine [LPC]
- EDG8-mediated increase in intracellular Ca2+ by lysophospholipid mediators [1]: failed to generate any significant response in concentrations up to 1 μM

Compound: CCCCCCCCCCCCC/C=C/[C@@H](O)[C@@H](N)COP(=O)(O)O [S1P, sphingosine 1-phosphate]
- S1P-induced [Ca2+]i mobilization via EDG5 [2]: mobilize [Ca^2+]i in response to S1P
- S1P-induced [Ca2+]i mobilization via EDG6 [3]: failed to detect a significant Ca^2+ increase above basal levels
- EDG8-mediated increase in intracellular Ca2+ by lysophospholipid mediators [1]: most potent activator of EDG8
- S1P-induced Ca2+ mobilization via EDG8 ([1]; CHO cells, EDG8 cotransfected with Gα16 or Gαqi5, 10, 100 and 1000 nM): gained the ability to mobilize Ca^2+
- S1P-induced [Ca2+]i release via EDG8 ([1]; CHO cells, EDG8 without cotransfected G protein α subunit, 10, 100 and 1000 nM): did not release [Ca^2+]i
- S1P-induced [Ca2+]i mobilization via EDG1 [4]: mobilize [Ca^2+]i in response to S1P
- S1P-induced rise in intracellular Ca2+ ([5]; CHO cells transfected with empty vector DNA, 10, 100, 1000 nM): None of the applied S1P concentrations was capable of eliciting significant rises in intracellular Ca^2+
- S1P-induced increase in [Ca2+]i ([5]; Gqi5- and G16-transfected CHO cells, no EDG receptor): did not give rise to significant increases in [Ca^2+]i
- S1P-induced [Ca2+]i mobilization via EDG3 [6]: mobilize [Ca^2+]i in response to S1P

Compound: CCCCCCCCCCCCCCC[C@@H](O)[C@@H](N)COP(=O)(O)O [dHS1P, dihydro sphingosine 1-phosphate]
- EDG8-mediated increase in intracellular Ca2+ by lysophospholipid mediators [1]: evoked [Ca^2+]i increases in concentrations of 100 and 1000 nM

Compound: CCCCCCCCCCCCC/C=C/[C@@H](O)[C@@H](N)COP(=O)([O-])OCC[N+](C)(C)C [SPC, sphingosylphosphorylcholine]
- EDG8-mediated increase in intracellular Ca2+ by lysophospholipid mediators [1]: failed to generate any significant response in concentrations up to 1 μM

Compound: Cc1ccc(C(=O)Nc2ccc(S(=O)(=O)O)c3cc(S(=O)(=O)O)cc(S(=O)(=O)O)c23)cc1NC(=O)c1cccc(NC(=O)Nc2cccc(C(=O)Nc3cc(C(=O)Nc4ccc(S(=O)(=O)O)c5cc(S(=O)(=O)O)cc(S(=O)(=O)O)c45)ccc3C)c2)c1 [suramin]
- Effect on [Ca2+]i mobilization during preincubation period [7]: did not show any effect
- Effect on [Ca2+]i mobilization during preincubation period [8]: did not show any effect

Compound: lysophosphatidic acid [LPA]
- EDG8-mediated increase in intracellular Ca2+ by lysophospholipid mediators [1]: evoked [Ca^2+]i increases in concentrations of 100 and 1000 nM
